Experimental data as given in PMC10789121, “Amine Basicity of Quinoline ATP Synthase Inhibitors Drives Antibacterial Activity against Pseudomonas aeruginosa” (ACS Medicinal Chemistry Letters, 2023).
Several values for one entry are separate records, joined by “and”; a condition that tells them apart may be missing. Equal entries are not always repeated. Where two headings read alike, the source gives them in different places.

Experiments:
[1] = test system: PΔ6 (efflux knockout strain of PA); test: Antimicrobial susceptibility, broth microdilution MIC; type: cell-based; conditions: Pseudomonas aeruginosa, read-out: MIC PΔ6
Description: (§1) Pseudomonas aeruginosa (ATCC 9027), Drug-Resistant Pseudomonas aeruginosa from ATCC Panel MP-23 (BAA-2108, BAA-2109, BAA-2110), and Pseudomonas aeruginosa efflux knockout GKCW120 (PD6)14 provided by Zgurskaya and co-workers at the University of Oklahoma.
(§2) Antimicrobial Susceptibility Assay Procedure. Susceptibility testing was performed in biological triplicate, using the broth microdilution method as outlined by the Clinical and Laboratory Standards Institute. Briefly, minimum inhibitory concentrations (MIC) determinations were carried out in 96-well microtiter plates with 2-fold serial dilutions of the compounds from 0 […]
(§3) Briefly, to each well 1 µL of compound in DMSO, 89 µL of TSB, and 10 µL of bacterial inoculum, grown from frozen stock in 10 mL of TSB […]
(§4) for 4-6 hours, were added. […]
(§5) on a Biotek Synergy HTX Multi-mode plate reader. Data was processed by background subtracting the media absorbance and then normalizing the data to full bacterial growth with only vehicle.
(§6) MIC is defined as the lowest concentration of antibiotic or antibiotic/adjuvant combination that achieves ≥ 85% growth inhibition, which corresponds to no visible growth. […]

PA 9027 = test: as above; type: cell-based; conditions: Pseudomonas aeruginosa, read-out: MIC PA 9027
Description: as §1, §2, §3, §4, §5, §6

[2] = parameters: method as in earlier work; conditions: value of the C2 functional group; cited from earlier work
[3] = test system: BAA 2110 (MDRPA clinical isolate); test: Antimicrobial susceptibility, broth microdilution MIC; type: cell-based, Pseudomonas aeruginosa; conditions: for MIC: Pseudomonas aeruginosa
Description: as §1, §2, §3, §4, §5, §6

[4] = test system: BAA 2109 (MDRPA clinical isolate); test: as above; type: cell-based, Pseudomonas aeruginosa; conditions: for MIC: Pseudomonas aeruginosa
Description: as §1, §2, §3, §4, §5, §6

[5] = test system: BAA 2108 (MDRPA clinical isolate); test: as above; type: cell-based, Pseudomonas aeruginosa; conditions: for MIC: Pseudomonas aeruginosa
Description: as §1, §2, §3, §4, §5, §6

[6] = test system: EC electron transport chain; test: Electron transport activity (ACMA fluorescence quenching) in E. coli DK8 pASH20 inverted membrane vesicles; type: biochemical, Escherichia coli
Description: (§7) Determination of electron transport activity. As previously described,11 inverted membrane vesicles from PA 9027 or E. coli DK8 pASH20 were added to HMK buffer containing 0.3 µg/mL 9-amino-6-chloro-2-methoxyacridine (ACMA) and 0-64 µg/mL test compound in DMSO. After measurement of baseline ACMA fluorescence for 60 s, redox-driven H+ pumping was initiated by addition of NADH to 0.8 mM, and fluorescence quenching was monitored for 120 s before addition of nigericin to 0.5 µg/mL. Relative activity is reported as the minimum fluorescence value normalized to the maximum fluorescence value following addition of nigericin.

[7] = test system: PA electron transport chain; test: Electron transport activity (ACMA fluorescence quenching) in PA 9027 inverted membrane vesicles; type: biochemical, Pseudomonas aeruginosa; conditions: for PA ETC IC50: PA 9027 inverted membrane vesicles
Text: The assay for PA ATP synthase activity in EC DK8/pASH20 membrane vesicles requires a functional EC ETC, so potent inhibition of the EC ETC by any compound would interfere with the determination of its IC50 for PA ATP synthase. […] Furthermore, potent inhibition of PA ETC could be an alternative mechanism of action for the antibacterial activity of the current series.
as §7

PA ATP synthase = target: T1, PA ATP synthase (Pseudomonas aeruginosa, UniProt Q9HT15); test: Inhibition of NADH-driven PA ATP synthesis activity in DK8/pASH20 inverted membrane vesicles (end-point luciferin/luciferase assay); type: biochemical; conditions: for IC50: PA ATP synthase IC50 (absolute), NADH-driven ATP synthesis, EC DK8/pASH20 inverted membrane vesicles
T1 construct: a whole operon plasmid that expresses; made in house; host or cells: Escherichia coli DK8 (K-12 strain lacking the unc operon) transformed with pASH20; used as inverted membrane vesicles, not purified

[8] = Solubility in the assay medium; type: physicochemical; conditions: assay medium of the ATP synthesis inhibition assay; read-out: Solubility in the assay medium (poor/insoluble above this concentration)
[9] = BAA2110, >85% reduction in growth at OD 590 nm, n = 3, read-out: MIC BAA 2110
[10] = BAA2109, >85% reduction in growth at OD 590 nm, n = 3, read-out: MIC BAA 2109
[11] = BAA2108, >85% reduction in growth at OD 590 nm, n = 3, read-out: MIC BAA 2108
[12] = >85% reduction in growth at OD 590 nm, n = 3
[13] = BAA2110, read-out: MIC BAA 2110
[14] = BAA2109, read-out: MIC BAA 2109
[15] = BAA2108, read-out: MIC BAA 2108

SMILES	MIC [1] [µg/mL]	MIC (PA 9027) [µg/mL]	approximate pKa (NH+) of C2 side chain conjugate acid [2]	MIC [3, 9] [µg/mL]	MIC [4, 10] [µg/mL]	MIC [5, 11] [µg/mL]	% EC ETC Inhibition at 4 µg/mL [6] [%]	PA ETC IC50 [7]	IC50 (PA ATP synthase)	further results
CN(C)CCCNCc1cc2ccccc2nc1SCc1ccccc1 [Compound 6]	16	> 128	above 6	32	64	64	3	44 µg/mL	16.4 µM	
c1ccc(CSc2nc3ccccc3cc2CNCCC2CCN(C3CCCC3)CC2)cc1 [Compound 16]	8	> 128	> 6				9	14 [14] μg/mL	2.18 µM	MIC BAA 2110 [3, 12]: inactive; MIC [3, 13]: > 128 µg/mL; MIC [4, 14]: 64 µg/mL; MIC [5, 15]: 32 µg/mL
CN(C)CCCCNCc1cc2ccccc2nc1SCc1ccccc1 [Compound 8]	16	> 128	> 6	32	64	64	0	26 [26] μg/mL	2.63 µM	
CNC(C)C1CCC(N)C(OC2C(N)CC(N)C(OC3OCC(C)(O)C(NC)C3O)C2O)O1 (centres unmarked) [gentamicin, reference compound]	> 4	2 to 4		4 to 8	2	16				
CSc1nc2ccccc2cc1CNCCc1nc(C)cc(C)n1 [Compound 19]			∼1				1.3		198 µM	% PA ETC Inhibition ([7]; concentration not given): 20%
CSc1nc2ccccc2cc1CNCCCCN(C)C [Compound 7]							6		224 µM	% PA ETC Inhibition at 32 µg/mL [7]: 72%
CN(C)c1ccc(CNCc2cc3ccccc3nc2SCc2ccccc2)cc1 [Compound 12]										EC ETC inhibition (in words) [6]: displayed some PA and EC ETC; solubility [8]: ≤ 16 µg/mL; PA ETC inhibition (in words) [7]: displayed some PA and EC ETC; PA ATP synthase inhibition (in words) (PA ATP synthase; <4 μg/mL, IC50 could not be determined): potent PA ATP synthase inhibition at low concentrations
c1ccc(CSc2nc3ccccc3cc2CNCCc2cnc[nH]2)cc1 [Compound 22]	16	> 128		> 128	64	32		15 µg/mL	~5.34 µM and 5.34 µM	MIC BAA 2109 [4, 12]: displayed antibacterial activity; MIC BAA 2108 [5, 12]: displayed antibacterial activity; EC ETC IC50 ([6]; E. coli DK8 pASH20 inverted membrane vesicles): 14 µg/mL
O=C(N[C@H](CO)[C@H](O)c1ccc([N+](=O)[O-])cc1)C(Cl)Cl [chloramphenicol, reference compound]	4			128	128	32				MIC (PA 9027; [12]): 128 µg/mL
CCN1CCC(CCNCc2cc3ccccc3nc2SC)CC1 [Compound 13]							20		114 µM	% PA ETC Inhibition at 32 µg/mL [7]: 74%
CCN1CCC(CCNCc2cc3ccccc3nc2SCc2ccccc2)CC1 [Compound 14]	16	> 128	above 6				16	26 [26] μg/mL	2.38 µM	MIC [3, 13]: 16 µg/mL; MIC [4, 14]: 64 µg/mL; MIC [5, 15]: 32 µg/mL
